The conditions of the data set: 37° C., diffusion time 4 h, lidocaine 0.05% (hya 0.25% where present) in donor compartment.

In patent publication US20060122147A1, “Combination preparation of hyaluronic acid and at least oe local anesthetic and the use thereof” (priority 2002, published 2006) one finds Flux data, which are given here for one compound.

Where two headings read alike, the source gives them in different places.

With `CCN(CC)CC(=O)Nc1c(C)cccc1C` [lidocaine], the Flux by setting is: (pH 3.1) 0.32 mg h^−1 cm^−2; (pH 6.0) 0.355 mg h^−1 cm^−2; (pH 6.5) 0.315 mg h^−1 cm^−2; (pH 6.9) 0.42 mg h^−1 cm^−2; (pH 7.7) 0.35 mg h^−1 cm^−2; (pH 9.0) 0.09 mg h^−1 cm^−2.
